Where two headings read alike, the source gives them in different places.
Tests used:
Format in all cases: cell-based
[1] = test system: human dermal fibroblasts from LHON patients; test: Rescue of BSO-stressed fibroblasts from LHON patients (Example C); conditions: Fibroblast, LHON fibroblasts GM03858, screen as Example A, read-out: protection against LHON, EC50
Description: The compounds were tested for their ability to rescue human dermal fibroblasts from LHON patients from oxidative stress.

[2] = test system: human dermal fibroblasts from Huntington's patients; test: Rescue of BSO-stressed fibroblasts from Huntington's patients (Example B); conditions: Fibroblast, Huntington's fibroblasts GM 04281, screen as Example A, read-out: protection against Hungtington's, EC50
Description: The compounds were tested for their ability to rescue human dermal fibroblasts from Huntington's patients from oxidative stress.

[3] = test system: Human dermal fibroblasts from Friedreich's Ataxia patients; test: Rescue of BSO-stressed FRDA fibroblasts (Example A); conditions: FRDA fibroblasts GM04078, 1 mM BSO
Description: Test samples, 4 reference compounds (idebenone, decylubiquinone, Trolox and α-tocopherol acetate), and solvent controls were tested for their ability to rescue FRDA fibroblasts stressed by addition of L-buthionine (S,R)-sulfoximine (BSO), as described in Jauslin et al., Hum. Mol. Genet. […] Mol. Genet. […] This specific BSO-mediated cell death can be prevented by administration of antioxidants or molecules involved in the antioxidant pathway, such as α-tocopherol, selenium, or small molecule glutathione peroxidase mimetics. However, antioxidants differ in their potency, i.e. the concentration at which they are able to rescue BSO-stressed FRDA fibroblasts.
Fetal Calf Serum was obtained from PAA Laboratories. Basic fibroblast growth factor and epidermal growth factor were purchased from PeproTech. Penicillin-streptomycin-glutamine mix, L-buthionine (S,R)-sulfoximine, (+)-α-tocopherol acetate, decylubiquinone, and insulin from bovine pancreas were purchased from Sigma. Trolox (6-Hydroxy-2,5,7,8-tetramethylchroman-2-carboxylic acid) was obtained from Fluka. Idebenone was obtained from Chemo Iberica. Calcein AM was purchased from Molecular Probes. Cell culture medium was made by combining 125 ml M199 EBS, 50 ml Fetal Calf Serum, 100 U/ml penicillin, 100 μg/ml streptomycin, 2 mM glutamine, 10 μg/ml insulin, 10 ng/ml EGF, and 10 ng/ml bFGF; MEM EBS was added to make the volume up to 500 ml. […] During the course of the experiments, this solution was stored at +4° C. The cells were obtained from the Coriell Cell Repositories (Camden, NJ; repository number GM04078) and grown in 10 cm tissue culture plates. Every third day, they were split at a 1:3 ratio.
The test samples were supplied in 1.5 ml glass vials. […] Once dissolved, they were stored at −20° C. Reference antioxidants (idebenone, decylubiquinone, α-tocopherol acetate and trolox) were dissolved in DMSO.
Test samples were screened according to the following protocol: A culture with FRDA fibroblasts was started from a 1 ml vial with approximately 500,000 cells stored in liquid nitrogen. […] Once confluent, fibroblasts were harvested. […] The remaining cells were distributed in 10 cm cell culture plates (500,000 cells/plate) for propagation. The plates were incubated overnight at 37° C. in a atmosphere with 95% humidity and 5% CO2 to allow attachment of the cells to the culture plate.
MTP medium (243 μl) was added to a well of the microtiter plate. […] Serial dilutions from the master solution were made. The period between the single dilution steps was kept as short as possible (generally less than 1 second).
Plates were kept overnight in the cell culture incubator. The next day, 10 μl of a 10 mM BSO solution were added to the wells, resulting in a 1 mM final BSO concentration. Forty-eight hours later, three plates were examined under a phase-contrast microscope to verify that the cells in the 0% control (wells E1-H1) were clearly dead. The medium from all plates was discarded, and the remaining liquid was removed by gently tapping the plate inversed onto a paper towel.
The plates were incubated for 50-70 minutes at room temperature. After that time the PBS was discarded, the plate gently tapped on a paper towel and fluorescence (excitation/emission wavelengths of 485 nm and 525 nm, respectively) was read on a Gemini fluorescence reader. Data was imported into Microsoft Excel (EXCEL is a registered trademark of Microsoft Corporation for a spreadsheet program) and used to calculate the EC50 concentration for each compound.
The compounds were tested three times, i.e., the experiment was performed three times, the passage number of the cells increasing by one with every repetition.
The viability of non-BSO treated fibroblasts was set as 100%, and the viability of the BSO- and compound-treated cells was calculated as relative to this value.

[4] = read-out: protection against FRDA, EC50
[5] = Calcein AM viability, average of three values, read-out: EC50 Average
[6] = Calcein AM viability, experiment 1 of 3, read-out: EC50 Value 1
[7] = Calcein AM viability, experiment 2 of 3, read-out: EC50 Value 2
[8] = Calcein AM viability, experiment 3 of 3, read-out: EC50 Value 3

CC1=C(C)C(=O)C(CCC(C)(O)C(=O)N2CCN(C(=O)c3ccccc3)CC2)=C(C)C1=O (centres unmarked) [2-(4-(4-benzoylpiperazin-1-yl)-3-hydroxy-3-methyl-4-oxobutyl)-3,5,6-trimethylcyclohexa-2,5-diene-1,4-dione]
EC50 [1]: < 100 nM

CC1=C(C)C(=O)C(CCC(C)(O)C(=O)N2CCCCCC2)=C(C)C1=O (centres unmarked) [2-(4-(azepan-1-yl)-3-hydroxy-3-methyl-4-oxobutyl)-3,5,6-trimethylcyclohexa-2,5-diene-1,4-dione]
EC50 [1]: < 100 nM

CC1=C(C)C(=O)C(CCC(C)(O)C(=O)NCCCS(C)(=O)=O)=C(C)C1=O (centres unmarked) [2-hydroxy-2-methyl-N-(3-(methylsulfonyl)propyl)-4-(2,4,5-trimethyl-3,6-dioxocyclohexa-1,4-dienyl)butanamide]
EC50 [1]: < 100 nM

CC1=C(C)C(=O)C(CCC(C)(O)C(=O)NCc2ccncc2)=C(C)C1=O (centres unmarked) [2-hydroxy-2-methyl-N-(pyridin-4-ylmethyl)-4-(2,4,5-trimethyl-3,6-dioxocyclohexa-1,4-dienyl)butanamide]
EC50 [1]: < 100 nM

COc1ccc(NC(=O)C(C)(O)CCC2=C(C)C(=O)C(C)=C(C)C2=O)cc1 (centres unmarked) [2-hydroxy-N-(4-methoxyphenyl)-2-methyl-4-(2,4,5-trimethyl-3,6-dioxocyclohexa-1,4-dienyl)butanamide]
EC50 [2]: < 100 nM
EC50 [3, 4]: < 100 nM

CC1=C(C)C(=O)C(CC[C@@](C)(O)C(=O)N2CCC(O)CC2)=C(C)C1=O [(R)-2-(3-hydroxy-4-(4-hydroxypiperidin-1-yl)-3-methyl-4-oxobutyl)-3,5,6-trimethylcyclohexa-2,5-diene-1,4-dione]
EC50 [1]: < 100 nM
EC50 [3, 4]: < 100 nM

CC(=O)N1CCN(C(=O)[C@](C)(O)CCC2=C(C)C(=O)C(C)=C(C)C2=O)CC1 [(R)-2-(4-(4-acetylpiperazin-1-yl)-3-hydroxy-3-methyl-4-oxobutyl)-3,5,6-trimethylcyclohexa-2,5-diene-1,4-dione]
EC50 [2]: < 100 nM
EC50 [1]: < 100 nM
EC50 [3, 4]: < 100 nM

CC1=C(C)C(=O)C(CC[C@@](C)(O)C(N)=O)=C(C)C1=O [(R)-2-hydroxy-2-methyl-4-(2,4,5-trimethyl-3,6-dioxocyclohexa-1,4-dienyl)butanamide]
EC50 [2]: < 100 nM
EC50 [1]: < 100 nM
EC50 [3, 4]: < 100 nM

CC1=C(C)C(=O)C(CC[C@](C)(O)C(=O)N2CCC(O)CC2)=C(C)C1=O [(S)-2-(3-hydroxy-4-(4-hydroxypiperidin-1-yl)-3-methyl-4-oxobutyl)-3,5,6-trimethylcyclohexa-2,5-diene-1,4-dione]
EC50 [1]: < 100 nM
EC50 [3, 4]: < 100 nM

CC(=O)N1CCN(C(=O)[C@@](C)(O)CCC2=C(C)C(=O)C(C)=C(C)C2=O)CC1 [(S)-2-(4-(4-acetylpiperazin-1-yl)-3-hydroxy-3-methyl-4-oxobutyl)-3,5,6-trimethylcyclohexa-2,5-diene-1,4-dione]
EC50 [2]: < 100 nM
EC50 [1]: < 100 nM
EC50 [3, 4]: < 100 nM

CC1=C(C)C(=O)C(CCC(C)(O)C(=O)NCCC(C)C)=C(C)C1=O (centres unmarked) [Example 7, 2-Hydroxy-N-isopentyl-2-methyl-4-(2,4,5-trimethyl-3,6-dioxocyclohexa-1,4-dienyl)butanamide]
EC50 [1]: < 100 nM

CC1=C(C)C(=O)C(CCC(C)(O)C(=O)NCCCO)=C(C)C1=O (centres unmarked) [Example 9, 2-Hydroxy-N-(3-hydroxypropyl)-2-methyl-4-(2,4,5-trimethyl-3,6-dioxocyclohexa-1,4-dienyl)butanamide]
EC50 [2]: < 100 nM
EC50 [1]: < 100 nM
EC50 [3, 4]: < 100 nM

CC1=C(C)C(=O)C(CCC(C)(O)C(=O)N2CCN(C)CC2)=C(C)C1=O (centres unmarked) [Example 14, 2-(3-Hydroxy-3-methyl-4-(4-methylpiperazin-1-yl)-4-oxobutyl)-3,5,6-trimethylcyclohexa-2,5-diene-1,4-dione]
EC50 [2]: < 100 nM
EC50 [3, 4]: < 100 nM

CC1=C(C)C(=O)C(CCC(C)(O)C(=O)NCCCCO)=C(C)C1=O (centres unmarked) [Example 17, 2-Hydroxy-N-(4-hydroxybutyl)-2-methyl-4-(2,4,5-trimethyl-3,6-dioxocyclohexa-1,4-dienyl)butanamide]
EC50 [2]: < 100 nM
EC50 [1]: < 100 nM
EC50 [3, 4]: < 100 nM

CC1=C(C)C(=O)C(CCC(C)(O)C(=O)NCCCN2CCCC2=O)=C(C)C1=O (centres unmarked) [Example 29, 2-Hydroxy-2-methyl-N-(3-(2-oxopyrrolidin-1-yl)-propyl)-4-(2,4,5-trimethyl-3,6-dioxocyclohexa-1,4-dienyl)butanamide]
EC50 [2]: < 100 nM

CC1=C(C)C(=O)C(CCC(C)(O)C(=O)NCC(C)O)=C(C)C1=O (centres unmarked) [Example 30, 2-Hydroxy-N-(2-hydroxypropyl)-2-methyl-4-(2,4,5-trimethyl-3,6-dioxocyclohexa-1,4-dienyl)butanamide]
EC50 [1]: < 100 nM
EC50 [3, 4]: < 100 nM

CC1=C(C)C(=O)C(CCC(C)(O)C(=O)NCCCN2CCOCC2)=C(C)C1=O (centres unmarked) [Example 33, 2-Hydroxy-2-methyl-N-(3-morpholinopropyl)-4-(2,4,5-trimethyl-3,6-dioxocyclohexa-1,4-dienyl)butanamide]
EC50 [2]: < 100 nM
EC50 [3, 4]: < 100 nM

CC1=C(C)C(=O)C(CCC(C)(O)C(=O)N(CCO)CCO)=C(C)C1=O (centres unmarked) [Example 35, 2-Hydroxy-N,N-bis(2-hydroxyethyl)-2-methyl-4-(2,4,5-trimethyl-3,6-dioxocyclohexa-1,4-dienyl)butanamide]
EC50 [2]: < 100 nM
EC50 [3, 4]: < 100 nM

CC1=C(C)C(=O)C(CCC(C)(O)C(=O)N2CCCCC2)=C(C)C1=O (centres unmarked) [Example 42, 2-(3-Hydroxy-3-methyl-4-oxo-4-(piperidin-1-yl)butyl)-3,5,6-trimethylcyclohexa-2,5-diene-1,4-dione]
EC50 [1]: < 100 nM

COC1=C(OC)C(=O)C(CCCCCCCCCCO)=C(C)C1=O [Idebenone, reference compound]
EC50 [3, 5]: 1200 nM
EC50 [3, 6]: 1500 nM
EC50 [3, 7]: 1000 nM
EC50 [3, 8]: 1000 nM

CC1=C(C)C(=O)C(CCC(C)(O)C(=O)NCCc2ccccc2F)=C(C)C1=O (centres unmarked) [N-(2-fluorophenethyl)-2-hydroxy-2-methyl-4-(2,4,5-trimethyl-3,6-dioxocyclohexa-1,4-dienyl)butanamide]
EC50 [1]: < 100 nM
EC50 [3, 4]: < 100 nM

CC1=C(C)C(=O)C(CCC(C)(O)C(=O)NCCc2cccc(F)c2)=C(C)C1=O (centres unmarked) [N-(3-fluorophenethyl)-2-hydroxy-2-methyl-4-(2,4,5-trimethyl-3,6-dioxocyclohexa-1,4-dienyl)butanamide]
EC50 [1]: < 100 nM
EC50 [3, 4]: < 100 nM

Cc1c(C)c2c(c(C)c1O)CCC(C)(C(=O)O)O2 (centres unmarked) [Trolox, 6-Hydroxy-2,5,7,8-tetramethylchroman-2-carboxylic acid, reference compound]
EC50 [3, 5]: 8700 nM
EC50 [3, 6]: 9000 nM
EC50 [3, 7]: 9000 nM
EC50 [3, 8]: 8000 nM

CC(=O)Oc1c(C)c(C)c2c(c1C)CCC(C)(CCC[C@H](C)CCC[C@H](C)CCCC(C)C)O2 (stereo partly drawn) [alpha-tocopherol acetate, (+)-α-tocopherol acetate, reference compound]
EC50 [3, 5]: 300 nM
EC50 [3, 6]: 400 nM
EC50 [3, 7]: 150 nM
EC50 [3, 8]: 350 nM

CCCCCCCCCCC1=C(C)C(=O)C(OC)=C(OC)C1=O [decylubiquinone, reference compound]
EC50 [3, 5]: 38 nM
EC50 [3, 6]: 50 nM
EC50 [3, 7]: 35 nM
EC50 [3, 8]: 30 nM
